Results reported in ChEMBL document CHEMBL1687884, “Mirabamides E-H, HIV-inhibitory depsipeptides from the sponge Stelletta clavosa” (J Nat Prod, 2011).
Numbered stars: 1 amine (or outer) side, 2 acyl side, 3 side chain; on linkers, the order of the positions; unused ones are H or OH. Bridge positions count the residues as written; N and C are the ends. Square brackets hold non-standard residues; d marks the D form. Peptide text beside a SMILES is read from it. * marks the point of attachment. dLeu(3R-OH) = CC(C)[C@@H](O[*:3])[C@@H](N[*:1])C(=O)[*:2]; Gln(3S,4R-Me2) = C[C@H]([C@H](N)C(=O)O)[C@@H](C)C(N)=O; dTyr(βR-OMe) = CO[C@H](c1ccc(O)cc1)[C@@H](N)C(=O)O; Pip(4S-Cl) = O=C(O)[C@@H]1C[C@@H](Cl)CCN1; X1 = CCC(C)/C=C(C)/C=C\C(O)C(C)(O)C(=O)*; Abu(3R-NH2) = C[C@@H](N)[C@H](N)C(=O)O; NMeT = CN[C@H](C(=O)O)[C@@H](C)O

Tested on: Human immunodeficiency virus 1
Assay: Inhibition of HIV1 isolate YU2 infected in human TZM-bl cells expressing CD4 and CCR5 assessed as assessed inhibition of viral entry after 24 hrs by luciferase reporter assay
Assay type: functional, organism-based
Conditions: Human immunodeficiency virus 1, isolate YU2, TZM-bl

CCC(C)/C=C(C)/C=C\C(O)C(C)(O)C(=O)NCC(=O)N[C@H](C(=O)N[C@H](C(=O)N[C@H](C(=O)N[C@H]1C(=O)N[C@H](COC)C(=O)NCC(=O)N[C@@H](C)C(=O)N(C)[C@@H]([C@@H](C)O)C(=O)N[C@H]([C@H](OC)c2ccc(O)cc2)C(=O)N2CC[C@H](Cl)C[C@H]2C(=O)O[C@@H]1C(C)C)[C@@H](C)[C@@H](C)C(N)=O)[C@@H](C)N)[C@@H](C)O (stereo partly drawn) [MIRABAMIDE C] (X1-GT[Abu(3R-NH2)][Gln(3S,4R-Me2)][dLeu(3R-OH)][dS](Me)GA[NMeT][dTyr(βR-OMe)][Pip(4S-Cl)]; ester 5-C)
IC50: 123 nM
